How the values were obtained:
Assay type in all cases: biochemical
Aurora A = target: T1, Aurora A (Homo sapiens, UniProt O14965); test: Aurora A counter screen; settings: read-out: AUR-A (IC50)
T1 sequence (O14965 1-403): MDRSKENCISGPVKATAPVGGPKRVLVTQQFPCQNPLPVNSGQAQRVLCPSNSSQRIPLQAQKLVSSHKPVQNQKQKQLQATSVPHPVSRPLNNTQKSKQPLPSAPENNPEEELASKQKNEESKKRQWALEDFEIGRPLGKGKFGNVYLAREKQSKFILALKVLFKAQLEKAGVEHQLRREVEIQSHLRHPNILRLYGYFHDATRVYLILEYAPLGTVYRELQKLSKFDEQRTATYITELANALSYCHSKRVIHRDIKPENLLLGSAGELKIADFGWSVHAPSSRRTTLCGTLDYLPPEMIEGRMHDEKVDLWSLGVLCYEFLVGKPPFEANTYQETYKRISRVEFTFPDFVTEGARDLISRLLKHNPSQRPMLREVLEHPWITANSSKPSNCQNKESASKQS
Description: (§1) To identify small molecule NUAK inhibitors, a biochemical NUAK2 enzymatic assay was outsourced to Eurofins. This assay was done radiometrically using full-length, recombinant enzyme. NUAK2 (h) was incubated with 8 mM MOPS pH 7.0, 0.2 mM EDTA, 300 μM […], 10 mM magnesium acetate and […] (specific activity and concentration as required). The reaction was initiated by the addition of the Mg/ATP mix. After incubation for 40 minutes at room temperature, the reaction was stopped by the addition of phosphoric acid to a concentration of 0.5%. 10 μL of the reaction was then spotted onto a P30 filter mat and washed four times for 4 minutes in 0.425% phosphoric acid and once in methanol prior to drying and scintillation counting. Compounds were routinely counter screened against Aurora A and NUAK1. The results are shown in Table 1 where IC50s are reported the following ranges: A: 0.1-10 nM; B: 11-100 nM; C: 101-1000 nM; D: >1000 nM for the compounds of Formula I)

NUAK1 = target: T2, NUAK1 (Homo sapiens, UniProt O60285); test: NUAK1 counter screen
T2 sequence (O60285 1-661): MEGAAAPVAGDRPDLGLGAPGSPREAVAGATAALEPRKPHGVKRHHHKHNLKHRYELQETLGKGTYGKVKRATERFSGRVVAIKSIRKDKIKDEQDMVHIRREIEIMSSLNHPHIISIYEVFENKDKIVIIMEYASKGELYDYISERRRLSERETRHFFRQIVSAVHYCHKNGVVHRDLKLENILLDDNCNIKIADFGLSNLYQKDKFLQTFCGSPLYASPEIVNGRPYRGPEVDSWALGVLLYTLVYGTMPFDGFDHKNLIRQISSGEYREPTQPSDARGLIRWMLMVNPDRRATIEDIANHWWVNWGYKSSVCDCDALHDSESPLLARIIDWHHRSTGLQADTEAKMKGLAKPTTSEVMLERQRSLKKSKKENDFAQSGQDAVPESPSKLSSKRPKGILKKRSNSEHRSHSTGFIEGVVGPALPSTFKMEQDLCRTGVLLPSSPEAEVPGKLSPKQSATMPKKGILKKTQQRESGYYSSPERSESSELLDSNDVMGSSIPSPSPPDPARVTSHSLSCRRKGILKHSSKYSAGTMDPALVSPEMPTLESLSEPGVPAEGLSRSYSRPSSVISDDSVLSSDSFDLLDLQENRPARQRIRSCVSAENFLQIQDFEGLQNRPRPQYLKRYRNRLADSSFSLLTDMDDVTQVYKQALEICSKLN
Description: as §1

NUAK2 (h) = target: T3, NUAK2 (h) (Homo sapiens, UniProt Q9H093); test: NUAK2 enzymatic assay (radiometric, Eurofins); settings: for IC50: radiometric, full-length recombinant enzyme; for AUR-A (IC50, nM)/NUAK2 (IC50, nM): NUAK2 selectivity over Aurora-A, ratio of IC50s
T3 construct: This assay was done radiometrically using full-length, recombinant enzyme; purchased Eurofins
T3 sequence (Q9H093 1-628): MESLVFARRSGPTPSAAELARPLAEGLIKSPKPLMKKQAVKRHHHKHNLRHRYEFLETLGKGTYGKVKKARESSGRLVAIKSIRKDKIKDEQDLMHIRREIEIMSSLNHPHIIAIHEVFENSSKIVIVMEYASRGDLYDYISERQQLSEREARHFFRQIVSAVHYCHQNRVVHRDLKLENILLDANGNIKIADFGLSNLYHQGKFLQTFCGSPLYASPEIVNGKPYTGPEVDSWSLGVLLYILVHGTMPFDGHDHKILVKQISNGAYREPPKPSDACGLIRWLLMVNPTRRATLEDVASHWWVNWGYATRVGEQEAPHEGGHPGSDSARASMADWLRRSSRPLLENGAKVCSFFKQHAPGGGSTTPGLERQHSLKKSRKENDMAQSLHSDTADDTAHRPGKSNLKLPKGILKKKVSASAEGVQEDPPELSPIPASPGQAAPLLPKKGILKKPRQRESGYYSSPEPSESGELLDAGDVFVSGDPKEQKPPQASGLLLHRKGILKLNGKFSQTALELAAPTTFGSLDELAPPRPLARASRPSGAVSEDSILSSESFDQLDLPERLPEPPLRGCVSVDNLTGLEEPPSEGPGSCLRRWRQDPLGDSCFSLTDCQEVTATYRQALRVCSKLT
Description: as §1

CCN1CCN(C2CCN(c3ccc(Nc4ncc(Cl)c(Nc5ccsc5C(N)=O)n4)c(OC(F)F)c3)CC2)CC1 [Compound I-61, 3-((5-chloro-2-((2-(difluoromethoxy)-4-(4-(4-ethylpiperazin-1-yl)piperidin-1-yl)phenyl)amino)pyrimidin-4-yl)amino)thiophene-2-carboxamide]
IC50 (Aurora A): 0.011 to 0.1 µM | IC50 (NUAK1): 0.011 to 0.1 µM | IC50 (NUAK2 (h)): 0.011 to 0.1 µM

CN(C)[C@@H]1CCN(c2ccc(Nc3ncc(Cl)c(Nc4ccsc4C(N)=O)n3)c(OC(F)F)c2)C1 [Compound I-55, (R)-3-((5-chloro-2-((2-(difluoromethoxy)-4-(3-(dimethylamino)pyrrolidin-1-yl)phenyl)amino)pyrimidin-4-yl)amino)thiophene-2-carboxamide]
IC50 (Aurora A): 0.101 to 1 µM | IC50 (NUAK1): 0.0001 to 0.01 µM | IC50 (NUAK2 (h)): 0.011 to 0.1 µM

COc1cc(N2CCC(N3CCN(C)CC3)CC2)ccc1Nc1ncc(Cl)c(Nc2ccsc2C(N)=O)n1 [Compound C-3, reference compound]
IC50 (Aurora A): 0.101 to 1 µM | IC50 (NUAK1): 0.011 to 0.1 µM | AUR-A (IC50, nM)/NUAK2 (IC50, nM) (NUAK2 (h)): 6 | IC50 (NUAK2 (h)): 0.011 to 0.1 µM

CC(C)(C)N1CCN(c2ccc(Nc3ncc(Cl)c(Nc4ccsc4C(N)=O)n3)c(OC(F)F)c2)CC1 [Compound I-20, 3-((2-((4-(4-(tert-butyl)piperazin-1-yl)-2-(difluoromethoxy)phenyl)amino)-5-chloropyrimidin-4-yl)amino)thiophene-2-carboxamide]
IC50 (Aurora A): 0.101 to 1 µM | IC50 (NUAK1): 0.0001 to 0.01 µM | IC50 (NUAK2 (h)): 0.0001 to 0.01 µM

COc1cc(N2CCN(C)CC2)ccc1Nc1ncc(Cl)c(Nc2ccsc2C(N)=O)n1 [Compound C-1, reference compound]
IC50 (Aurora A): 0.011 to 0.1 µM | IC50 (NUAK1): 0.0001 to 0.01 µM | AUR-A (IC50, nM)/NUAK2 (IC50, nM) (NUAK2 (h)): 6 | IC50 (NUAK2 (h)): 0.0001 to 0.01 µM

NC(=O)c1sccc1Nc1nc(Nc2ccc(N3CCN4CCOC[C@@H]4C3)cc2OC(F)F)ncc1Cl [Compound I-49, (S)-3-((5-chloro-2-((2-(difluoromethoxy)-4-(hexahydropyrazino[2,1-c][1,4]oxazin-8(1H)-yl)phenyl)amino)pyrimidin-4-yl)amino)thiophene-2-carboxamide]
IC50 (Aurora A): 0.101 to 1 µM | IC50 (NUAK1): 0.011 to 0.1 µM | IC50 (NUAK2 (h)): 0.011 to 0.1 µM

COCCN1CCN(c2ccc(Nc3ncc(Cl)c(Nc4ccsc4C(N)=O)n3)c(OC(F)F)c2)CC1 [Compound I-50, 3-((5-chloro-2-((2-(difluoromethoxy)-4-(4-(2-methoxyethyl)piperazin-1-yl)phenyl)amino)pyrimidin-4-yl)amino)thiophene-2-carboxamide]
IC50 (Aurora A): 0.011 to 0.1 µM | IC50 (NUAK1): 0.011 to 0.1 µM | IC50 (NUAK2 (h)): 0.011 to 0.1 µM

CN1CCC2(CC1)CCN(c1ccc(Nc3ncc(Cl)c(Nc4ccsc4C(N)=O)n3)c(OC(F)F)c1)CC2 [Compound I-54, 3-((5-chloro-2-((2-(difluoromethoxy)-4-(9-methyl-3,9-diazaspiro[5.5]undecan-3-yl)phenyl)amino)pyrimidin-4-yl)amino)thiophene-2-carboxamide]
IC50 (Aurora A): 0.101 to 1 µM | IC50 (NUAK1): 0.011 to 0.1 µM | IC50 (NUAK2 (h)): 0.011 to 0.1 µM

CCN1CCN(c2ccc(Nc3ncc(Cl)c(Nc4ccsc4C(N)=O)n3)c(OC(F)F)c2)CC1 [Compound I-5, 3-((5-chloro-2-((2-(difluoromethoxy)-4-(4-ethylpiperazin-1-yl)phenyl)amino)pyrimidin-4-yl)amino)thiophene-2-carboxamide]
IC50 (Aurora A): > 1 µM | IC50 (NUAK1): 0.011 to 0.1 µM | IC50 (NUAK2 (h)): 0.011 to 0.1 µM

CN1CCN(c2ccc(Nc3ncc(Cl)c(Nc4ccsc4C(N)=O)n3)c(C(F)(F)F)c2)CC1 [Compound I-46, 3-((5-chloro-2-((4-(4-methylpiperazin-1-yl)-2-(trifluoromethyl)phenyl)amino)pyrimidin-4-yl)amino)thiophene-2-carboxamide]
IC50 (Aurora A): > 1 µM | IC50 (NUAK1): 0.011 to 0.1 µM | IC50 (NUAK2 (h)): 0.011 to 0.1 µM

CC(C)N1CCN(c2ccc(Nc3ncc(Cl)c(Nc4sccc4C(N)=O)n3)c(OC(F)F)c2)CC1 [Compound I-13, 2-((5-chloro-2-((2-(difluoromethoxy)-4-(4-isopropylpiperazin-1-yl)phenyl)amino)pyrimidin-4-yl)amino)thiophene-3-carboxamide]
IC50 (Aurora A): 0.011 to 0.1 µM | IC50 (NUAK1): 0.011 to 0.1 µM | IC50 (NUAK2 (h)): 0.0001 to 0.01 µM

CN1CCc2cc(OC(F)F)c(Nc3ncc(Cl)c(Nc4ccsc4C(N)=O)n3)cc2C1 [Compound I-26, 3-((5-chloro-2-((6-(difluoromethoxy)-2-methyl-1,2,3,4-tetrahydroisoquinolin-7-yl)amino)pyrimidin-4-yl)amino)thiophene-2-carboxamide]
IC50 (Aurora A): 0.101 to 1 µM | IC50 (NUAK1): 0.101 to 1 µM | IC50 (NUAK2 (h)): 0.011 to 0.1 µM

CN1CCN(C2CCN(c3ccc(Nc4ncc(Cl)c(Nc5cscc5C(N)=O)n4)c(OC(F)F)c3)CC2)CC1 [Compound I-51, 4-((5-chloro-2-((2-(difluoromethoxy)-4-(4-(4-methylpiperazin-1-yl)piperidin-1-yl)phenyl)amino)pyrimidin-4-yl)amino)thiophene-3-carboxamide]
IC50 (Aurora A): 0.011 to 0.1 µM | IC50 (NUAK1): 0.0001 to 0.01 µM | IC50 (NUAK2 (h)): 0.0001 to 0.01 µM

CN(C)[C@H]1CCN(c2ccc(Nc3ncc(Cl)c(Nc4ccsc4C(N)=O)n3)c(OC(F)F)c2)C1 [Compound I-56, (S)-3-((5-chloro-2-((2-(difluoromethoxy)-4-(3-(dimethylamino)pyrrolidin-1-yl)phenyl)amino)pyrimidin-4-yl)amino)thiophene-2-carboxamide]
IC50 (Aurora A): 0.101 to 1 µM | IC50 (NUAK1): 0.0001 to 0.01 µM | IC50 (NUAK2 (h)): 0.011 to 0.1 µM

CC(C)N1C[C@@H]2C[C@H]1CN2c1ccc(Nc2ncc(Cl)c(Nc3ccsc3C(N)=O)n2)c(OC(F)F)c1 (stereo in doubt) [Compound I-35, 3-((5-chloro-2-((2-(difluoromethoxy)-4-((1S,4S)-5-isopropyl-2,5-diazabicyclo[2.2.1]heptan-2-yl)phenyl)amino)pyrimidin-4-yl)amino)thiophene-2-carboxamide]
IC50 (Aurora A): 0.101 to 1 µM | IC50 (NUAK1): 0.011 to 0.1 µM | IC50 (NUAK2 (h)): 0.011 to 0.1 µM

CN1CCN(c2ccc(Nc3ncc(Cl)c(N[C@@H]4CCC[C@@H]4C(N)=O)n3)c(OC(F)F)c2)CC1 [Compound I-86, (1S,2R)-2-((5-chloro-2-((2-(difluoromethoxy)-4-(4-methylpiperazin-1-yl)phenyl)amino)pyrimidin-4-yl)amino)cyclopentane-1-carboxamide]
IC50 (Aurora A): > 1 µM | IC50 (NUAK1): 0.011 to 0.1 µM | IC50 (NUAK2 (h)): 0.011 to 0.1 µM

C[C@H]1CN(C)CCN1C1CCN(c2ccc(Nc3ncc(Cl)c(Nc4ccsc4C(N)=O)n3)c(OC(F)F)c2)CC1 [Compound I-70, (S)-3-((5-chloro-2-((2-(difluoromethoxy)-4-(4-(2,4-dimethylpiperazin-1-yl)piperidin-1-yl)phenyl)amino)pyrimidin-4-yl)amino)thiophene-2-carboxamide]
IC50 (Aurora A): 0.011 to 0.1 µM | IC50 (NUAK1): 0.011 to 0.1 µM | IC50 (NUAK2 (h)): 0.011 to 0.1 µM

Reference: patent US20240025887A1, “THIENYL AND CYCLOALKYL AMINOPYRIMIDINE COMPOUNDS AS INHIBITORS OF NUAK KINASES, COMPOSITIONS AND USES THEREOF” (Ontario Institute for Cancer Research (OICR), priority 2021, published 2024)
